Measurements taken from patent US20060148766A1 (priority 2002, published 2006).

Tested on: living body
Experiment: Toxicity test
Details: in vivo

**Q.** `CN(C)c1ccc(O)c2c1C[C@H]1C[C@H]3[C@H](N(C)C)C(O)=C(C(N)=O)C(=O)[C@@]3(O)C(O)=C1C2=O` [minocycline] was tested. Which “side effects on the living body” value did it give?
**A.** no particular side effects
